# Measurements published in patent publication US10676471B2, “Cycloalkyl-linked diheterocycle derivatives” (Pfizer Inc., priority 2014, dated 2020).
# System: BT20 Cell
# Assay: Cancer Cell Lysate Total L-Glutamate Assay
# Format: cell-based
# Details: Homo sapiens, BT-20, 2 h, total L-glutamate in cell lysate, BT20 cells, 2 hour incubation with test compound
# How it was run: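 BT20 and other cancer lines at ~80% confluence were given fresh L-glutamine-containing medium, then treated with serially diluted compound (0.5% DMSO) for 2 hours at 37° C. Washed cells were lysed by freeze-thaw and sonication. Lysate glutamate was measured via glutamate oxidase/HRP/50 μM Amplex Red fluorescence (ex 530-560, em 585 nm); IC50 by four-parameter logistic fit.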
row,IC50 [nM],Compound
1,3.1,"CC(C)C(=O)Nc1ccc([C@H]2C[C@@H](Cc3nnc(NC(=O)Cc4ccccn4)s3)C2)nn1 (single isomer, unassigned) [Example 125, 2-methyl-N-{6-[cis-3-({5-[(pyridin-2-ylacetyl)amino]-1,3,4-thiadiazol-2-yl}methyl)cyclobutyl]pyridazin-3-yl}propanamide]"
2,1.1,"CCC(=O)Nc1ccc(C[C@@H]2CC[C@H](c3nnc(NC(=O)Cc4ccccn4)s3)C2)nn1 (single isomer, unassigned) [Example 79, N-(6-{[(cis)-3-{5-[(pyridin-2-ylacetyl)amino]-1,3,4-thiadiazol-2-yl}cyclopentyl]methyl}pyridazin-3-yl)propanamide]"
3,29.8,"CC(=O)Nc1nnc(C2CCC(Cc3nnc(NC(=O)Cc4ccc(C)nc4)s3)C2)s1 (racemic) [Example 52, (rac)-N-[5-({(cis)-3-[5-(acetylamino)-1,3,4-thiadiazol-2-yl]cyclopentyl}methyl)-1,3,4-thiadiazol-2-yl]-2-(6-methylpyridin-3-yl)acetamide]"
4,1.1,"O=C(Cc1ccccn1)Nc1ccc(C[C@@H]2CC[C@H](c3nnc(Nc4ccccn4)s3)C2)nn1 (single isomer, unassigned) [Example 75, 2-(pyridin-2-yl)-N-[6-({(cis)-3-[5-(pyridin-2-ylamino)-1,3,4-thiadiazol-2-yl]cyclopentyl}methyl)pyridazin-3-yl]acetamide]"
5,33.3,"O=C(Cc1ccccc1)Nc1nnc(C[C@H]2CC[C@@H](c3nnc(NC(=O)Cc4ccccc4)s3)C2)s1 (single isomer, unassigned) [Example 10]"
6,0.3,"O=C(Cc1ccccn1)Nc1nnc([C@H]2CC3(C[C@H](c4nnc(NC(=O)Cc5ccccn5)s4)C3)C2)s1 (single isomer, unassigned) [Example 99, N,N′-(spiro[3.3]heptane-2,6-diyldi-1,3,4-thiadiazole-5,2-diyl)bis[2-(pyridin-2-yl)acetamide]]"
7,71.2,"Nc1nnc(CC2CC[C@H](c3nnc(NC(=O)Cc4ccccc4)s3)C2)s1 (single isomer, unassigned) [Example 64, N-(5-{(cis)-3-[(5-amino-1,3,4-thiadiazol-2-yl)methyl]cyclopentyl}-1,3,4-thiadiazol-2-yl)-2-phenylacetamide]"
8,789,"CC(=O)Nc1nnc(C2CCC(Cc3nnc(NC(=O)Cc4cncnc4)s3)C2)s1 (racemic) [Example 49, (rac)-N-[(cis)-5-({3-[5-(acetylamino)-1,3,4-thiadiazol-2-yl]cyclopentyl}methyl)-1,3,4-thiadiazol-2-yl]-2-(pyrimidin-5-yl)acetamide]"
9,10.4,"CC(=O)Nc1nnc([C@H]2CC3(C[C@H](c4nnc(NC(C)=O)s4)C3)C2)s1 (single isomer, unassigned) [Example 93, N,N′-(spiro[3.3]heptane-2,6-diyldi-1,3,4-thiadiazole-5,2-diyl)diacetamide]"
10,1.8,"O=C(Cc1ccccn1)Nc1ccc([C@H]2C[C@H](Cc3nnc(NC(=O)Cc4ccccn4)s3)C2)nn1 (single isomer, unassigned) [Example 123, 2-(pyridin-2-yl)-N-{5-[(trans-3-{6-[(pyridin-2-ylacetyl)amino]pyridazin-3-yl}cyclobutyl)methyl]-1,3,4-thiadiazol-2-yl}acetamide]"
11,349,"CC(=O)Nc1nnc(C2CCC(Cc3nnc(NC(=O)Cc4ncccn4)s3)C2)s1 (racemic) [Example 46, (rac)-N-[5-({(cis)-3-[5-(acetylamino)-1,3,4-thiadiazol-2-yl]cyclopentyl}methyl)-1,3,4-thiadiazol-2-yl]-2-(pyrimidin-2-yl)acetamide]"
12,4.6,"CC(=O)Nc1nnc([C@@H]2CC[C@H](Cc3nnc(NC(=O)Cc4ccccn4)s3)C2)s1 (racemic) [Example 151, (rac)-N-[5-({(cis)-3-[5-(acetylamino)-1,3,4-thiadiazol-2-yl]cyclopentyl}methyl)-1,3,4-thiadiazol-2-yl]-2-(pyridin-2-yl)acetamide]"
